Test results taken from the NIST ThermoML archive (doi:10.1021/je0201119).
Numbers after ± are expanded uncertainties.

What was measured:
[1] = 92 kPa, Liquid; for mass density: Vibrating tube method
[2] = xn = mol fraction of the nth substance listed; settings: 92 kPa, Liquid, x2 = 0; for mass density: Vibrating tube method

| SMILES | viscosity ([1]; 313.15 K) [mPa·s] | mass density ([1]; 313.15 K) [kg/m3] | viscosity ([1]; 323.15 K) [mPa·s] | mass density ([1]; 323.15 K) [kg/m3] | viscosity ([1]; 333.15 K) [mPa·s] | mass density ([1]; 333.15 K) [kg/m3] | viscosity ([1]; 343.15 K) [mPa·s] | mass density ([1]; 343.15 K) [kg/m3] | viscosity ([1]; 298.15 K) [mPa·s] | viscosity ([1]; 303.15 K) [mPa·s] | viscosity ([2]; 298.15 K) [mPa·s] | viscosity ([2]; 303.15 K) [mPa·s] | viscosity ([2]; 313.15 K) [mPa·s] | mass density ([2]; 323.15 K) [kg/m3] | viscosity ([2]; 323.15 K) [mPa·s] | mass density ([2]; 333.15 K) [kg/m3] | viscosity ([2]; 333.15 K) [mPa·s] | mass density ([2]; 343.15 K) [kg/m3] | viscosity ([2]; 343.15 K) [mPa·s] |
| --- | --- | --- | --- | --- | --- | --- | --- | --- | --- | --- | --- | --- | --- | --- | --- | --- | --- | --- | --- |
| CC(C)(N)CO [2-amino-2-methylpropan-1-ol] | 47.8 ± 3.2 | 919.65 ± 1.4 | 25.1 ± 1.7 | 911.24 ± 1.4 | 14.4 ± 1 | 902.87 ± 1.4 | 8.91 ± 0.69 | 894.28 ± 1.4 | – | – | – | – | – | – | – | – | – | – | – |
| O [water] | 0.653 ± 0.069 | – | 0.547 ± 0.06 | 988.04 ± 0.06 | 0.466 ± 0.053 | 983.12 ± 0.06 | 0.405 ± 0.047 | 977.77 ± 0.06 | 0.89 ± 0.089 | 0.805 ± 0.082 | – | – | – | – | – | – | – | – | – |
| O [water] + CC(C)(N)CO | – | – | – | – | – | – | – | – | – | – | 0.89 ± 0.089 | 0.805 ± 0.082 | 0.653 ± 0.069 | 988.04 ± 0.06 | 0.547 ± 0.06 | 983.12 ± 0.06 | 0.466 ± 0.053 | 977.77 ± 0.06 | 0.405 ± 0.047 |
